Experimental findings from PubChem BioAssay (NCI) are described below.

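Interpolation was linear, between the two tested concentrations surrounding the appropriate level; five concentrations were tested over 48 hours in 96-well plates. GI50: concentration for 50% inhibition of growth. TGI marks complete inhibition of growth.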

Test systems include RXF 393 renal; KM12 colon; COLO 205 colon; M14 melanoma; MALME-3M melanoma; HCT-116 colon; OVCAR-8 ovarian; SNB-19 CNS; UACC-257 melanoma; CCRF-CEM leukemia.
Common to all, as to test: NCI tumour cell line growth inhibition, 48 h

Turning to `O/N=C1/C(=C/c2ccccc2)CCCC1C(NO)c1ccccc1` (configuration not stated), the TGI in the assay on RXF 393 renal, with KM12 colon, in the assay with COLO 205 colon, with M14 melanoma, in the assay on MALME-3M melanoma and with HCT-116 colon was above 100 µM throughout. The TGI in the assay with OVCAR-8 ovarian, in the assay with SNB-19 CNS and in the assay with UACC-257 melanoma was above 100 µM in each case.
`COc1ccc(Cn2c3c(c4c(O)cccc42)C(=O)c2ccccc2-3)cc1`: the GI50 with KM12 colon is 7.65 µM; in the assay on COLO 205 colon, 25.9 µM; in the assay on M14 melanoma it was 14.4 µM; with MALME-3M melanoma it was 8.71 µM; with HCT-116 colon it was 9.16 µM; with OVCAR-8 ovarian, 3.08 µM. Further, the values for the GI50 in the assay on SNB-19 CNS, with UACC-257 melanoma and with CCRF-CEM leukemia were 6.05 µM, 11.7 µM and 73.6 µM, respectively. Also, the TGI with KM12 colon came out at 22 µM; in the assay with COLO 205 colon, 92.3 µM; in the assay with M14 melanoma it was 38 µM; in the assay with MALME-3M melanoma it was 22.4 µM; in the assay on HCT-116 colon it was 21.5 µM; in the assay with OVCAR-8 ovarian it was 13.2 µM. In addition, the TGI with SNB-19 CNS is 23.4 µM; in the assay on UACC-257 melanoma it was 27.2 µM; in the assay on CCRF-CEM leukemia it was above 100 µM.
Take `O=C1c2c(O)cccc2C(C(=O)CCCC(=O)C2c3cccc(O)c3C(=O)c3c(O)cccc32)c2cccc(O)c21`: the TGI in the assay with KM12 colon came out at 0.868 µM; in the assay with COLO 205 colon, 1.32 µM; in the assay with M14 melanoma it was 2.48 µM; with MALME-3M melanoma, 2.85 µM; in the assay on HCT-116 colon, 3.79 µM; with OVCAR-8 ovarian, 2.77 µM. Also, the TGI stood at 4.12 µM with SNB-19 CNS, 0.893 µM with UACC-257 melanoma and 8.02 µM with CCRF-CEM leukemia.
Turning to `CC(C)c1ccc(O)c(O)c(=O)c1` (tested in a mixture with another compound), the TGI was 12 µM in the assay on RXF 393 renal; above 82.1 µM in the assay with KM12 colon; 17.1 µM in the assay with COLO 205 colon; 15.5 µM in the assay on M14 melanoma; 5.44 µM in the assay on MALME-3M melanoma; above 42.9 µM in the assay with HCT-116 colon. The TGI with OVCAR-8 ovarian was above 100 µM; with SNB-19 CNS, above 100 µM; in the assay with UACC-257 melanoma, 2.03 µM.
As for `NC(N)=N/N=C(/c1ccccc1)c1ccc(O)cc1O`, the TGI with RXF 393 renal is above 100 µM; with KM12 colon, above 100 µM; in the assay on COLO 205 colon it was 33.2 µM; with M14 melanoma, 58.7 µM; in the assay on MALME-3M melanoma, above 100 µM; in the assay with HCT-116 colon, above 100 µM. Also, the values for the TGI with OVCAR-8 ovarian, with SNB-19 CNS and in the assay on UACC-257 melanoma were 59.2 µM, above 100 µM and above 100 µM, respectively.
Regarding `CC(C)[C@H](O)C(=O)N[C@H]1Cc2ccc3c(c2)[C@]24C5=C(N=C(O5)[C@H](C(C)C)NC1=O)c1nc(Cl)c(o1)-c1c(Cl)[nH]c5cccc(c15)-c1cccc2c1N[C@H]4O3`, the GI50 with M14 melanoma is 0.0012 µM; with HCT-116 colon, below 0.001 µM; in the assay on SNB-19 CNS, below 0.001 µM; in the assay with UACC-257 melanoma, below 0.001 µM. For the same molecule, the TGI was above 10 µM in the assay on M14 melanoma, 0.0526 µM in the assay with MALME-3M melanoma, 3.27 µM in the assay on UACC-257 melanoma and 0.0277 µM in the assay on CCRF-CEM leukemia.
Take `CN(/C(=N\O)c1ccccc1)c1ccccc1`: the TGI is above 100 µM with KM12 colon; above 100 µM in the assay on COLO 205 colon; 57.5 µM in the assay with M14 melanoma; 84.1 µM in the assay with MALME-3M melanoma; above 100 µM in the assay with HCT-116 colon; 64.9 µM in the assay on OVCAR-8 ovarian. For the same molecule, the TGI in the assay with SNB-19 CNS was 90.3 µM; with UACC-257 melanoma, above 100 µM.
`C=C(C)C(=O)N1c2ccc(OC)cc2CC1C(=O)OCC` (configuration not stated): the TGI in the assay with KM12 colon, with COLO 205 colon, in the assay with M14 melanoma, in the assay with HCT-116 colon, in the assay on OVCAR-8 ovarian and in the assay with SNB-19 CNS was above 100 µM in each case. For the same molecule, the TGI in the assay on UACC-257 melanoma and in the assay with CCRF-CEM leukemia was above 100 µM throughout.
For the molecule `Cc1cc(Cl)ccc1Nc1nc(C(F)(F)F)ccc1C(=O)N/N=C/c1ccc(N(C)C)cc1`, the GI50 was 0.633 µM with RXF 393 renal; 3.4 µM with KM12 colon; 2.59 µM in the assay on COLO 205 colon; 1.2 µM with M14 melanoma; 0.743 µM in the assay on HCT-116 colon; 2.83 µM in the assay with OVCAR-8 ovarian. In addition, the GI50 in the assay with SNB-19 CNS is 3.08 µM; in the assay on UACC-257 melanoma it was 4.97 µM. The TGI was 44.4 µM in the assay with RXF 393 renal; above 100 µM in the assay on KM12 colon; above 100 µM in the assay on COLO 205 colon; 8.75 µM in the assay with M14 melanoma; above 100 µM in the assay on HCT-116 colon; above 100 µM in the assay on OVCAR-8 ovarian. Besides, the TGI with SNB-19 CNS and in the assay on UACC-257 melanoma was above 100 µM in each case.
`COc1ccc(CC(C#N)c2cc(OC)c(OC)c(OC)c2)cc1` (configuration not stated): the TGI with KM12 colon was 4.95 µM; in the assay with COLO 205 colon, 0.133 µM; with M14 melanoma, above 100 µM; in the assay with MALME-3M melanoma, above 100 µM; with HCT-116 colon it was 3.88 µM; with OVCAR-8 ovarian, 13 µM. Besides, the TGI with SNB-19 CNS, with UACC-257 melanoma and with CCRF-CEM leukemia was above 100 µM throughout.
On to `COC(=O)c1cccc2c1Oc1ccccc1S2`, for which the TGI with RXF 393 renal was above 100 µM; with KM12 colon, 36.4 µM; in the assay with COLO 205 colon it was 79.4 µM; in the assay on M14 melanoma, above 100 µM; in the assay with HCT-116 colon, above 100 µM; in the assay with OVCAR-8 ovarian, above 100 µM. Further, the results for the TGI with SNB-19 CNS, with UACC-257 melanoma and with CCRF-CEM leukemia were above 100 µM, above 100 µM and 56.9 µM, respectively.
Regarding `CCCCCC/C=C/CCCCCCCc1cccc(O)c1C(=O)O`, the TGI in the assay with KM12 colon, with COLO 205 colon, in the assay on M14 melanoma, in the assay on MALME-3M melanoma, in the assay on HCT-116 colon and with OVCAR-8 ovarian was above 100 µM each time. Further, the TGI in the assay on SNB-19 CNS, with UACC-257 melanoma and with CCRF-CEM leukemia was above 100 µM in each case.
In the case of `Cn1c(=O)c2[nH]cnc2n(CC(=O)O)c1=O`, the TGI with KM12 colon, with COLO 205 colon, in the assay on M14 melanoma, with MALME-3M melanoma, in the assay on HCT-116 colon and in the assay on OVCAR-8 ovarian was above 100 µM each time. Moreover, the TGI in the assay on SNB-19 CNS and in the assay with CCRF-CEM leukemia was above 100 µM in each case.
In the case of `CCN1CCC(O)(c2ccc(Cl)c(Cl)c2)C(C(=O)c2ccc(Cl)c(Cl)c2)C1` (configuration not stated), the TGI came to 31.7 µM in the assay with COLO 205 colon; 30.9 µM in the assay on M14 melanoma; 33.6 µM in the assay on MALME-3M melanoma; 32.4 µM with HCT-116 colon; 41 µM in the assay on OVCAR-8 ovarian; 35.1 µM in the assay with SNB-19 CNS. Further, the TGI was 32 µM in the assay with UACC-257 melanoma and 36.6 µM in the assay with CCRF-CEM leukemia.
